Experimental findings from US9138398B2, “Cationic alcohols and uses thereof” (Living Proof, Inc., priority 2009, dated 2015) are described below.

The nature of this test: Contact angle measurements of hair fiber (Cahn DCA-312 tensiometer). Conditions: 1.5% Example 15 in conditioner C2, 20 cycles, versus placebo conditioner C1. The source says:
As described previously, improving upon benefits such as hydrophobicity, shine and tactile properties leads to the perception of healthier, more conditioned hair. Contact angle measurement has proven to be a viable method to measure the degree of hydrophobicity of hair. In principle, it measures the angle at the point of contact of a liquid with a surface. If the surface is highly hydrophobic (such as virgin, untreated hair), the angle of the water droplet at the interface would be greater than 90°. Likewise, a hydrophilic surface would cause the water droplet to fall flat, and the angle would be close to 0°.
Virgin black hair tresses (1.5 g each, from International Hair Importers) were bleached once with a homogeneous mixture of Clairol Pure White 20V hydrogen peroxide solution (45 ml) and Clairol bleach powder Ultra Concentrate BW2000 (6.75 g) for 10 min at 50° C. The tresses were shampooed with a 7.5% Sodium Lauryl Sulfate solution twice and air-dried for 24 h. […]
Contact angle measurements were performed with a Cahn DCA-312 tensiometer. […] The water surface tension was determined with a platinum DuNuoy ring (Cat 14-812-5) to be 70.6 mN/m. […]
The hair fiber diameter was measured with a precision micrometer (Mitutoyo Cat 293-761-30). […] The advancing and receding contact angles were measured for each sample, with runs performed in triplicate.

Regarding `C[N+](C)(CC[N+](C)(C)CC(O)COCC(F)(F)C(F)F)CC(O)COCC(F)(F)C(F)F` (stereo not shown) [Example 15], the “Change of contact angle of bleached hair (hydrophobicity), in words” value is on record as “significantly increased the contact angle”.
